Tests used:
human colon-cancer cells = test system: human colon-cancer cells; parameters: method as in PMID 18790561, PMID 18298868; settings: intrinsic mitochondrial pathway; cited from earlier work
pancreatic tumor = test system: pancreatic tumor; parameters: method as in PMID 20367887; settings: cited from earlier work
Protein kinase C (PKC) = settings: cited from earlier work
[1] = parameters: method as in PMID 17978478; settings: KK-A^y mice; cited from earlier work
[2] = test system: human immunodeficiency virus (HIV-1) protease; parameters: method as in PMID 8759159; settings: cited from earlier work
A549, Hela and SMMC-7721 = test system: A549, Hela and SMMC-7721; parameters: method as in PMID 21973054; settings: data not very satisfactory; cited from earlier work
Staphylococcus aureus = test system: Staphylococcus aureus; parameters: method as in PMID 21973054; settings: turbidimetric method; cited from earlier work
Candida albicans = test system: Candida albicans; parameters: method as in PMID 21973054; settings: turbidimetric method; cited from earlier work
[3] = test system: RAW 264.7 murine macrophages; settings: cited from earlier work
HL-60 and HCT-116 = test system: HL-60 and HCT-116; parameters: method as in PMID 22298232; settings: cited from earlier work
HUVEC and HMEC-1 = test system: HUVEC and HMEC-1; parameters: method as in PMID 21518338; settings: cited from earlier work
iNOS = test system: iNOS; parameters: method as in PMID 12808242; settings: cited from earlier work
[4] = test system: Lewis lung carcinoma cells; parameters: method as in PMID 16827808; settings: daily intraperitoneal injection, 1.5 or 3 mg/kg/day, cited from earlier work
BAEC = test system: BAEC; parameters: method as in PMID 16827808; settings: cited from earlier work
corneal angiogenesis = test system: corneal angiogenesis; parameters: method as in PMID 16827808; settings: cited from earlier work

SMILES: CC1(C)CC[C@]2(C(=O)O)CC[C@]3(C)C(=CC[C@@H]4[C@@]5(C)C[C@@H](O)[C@H](O)C(C)(C)[C@@H]5CC[C@]43C)[C@@H]2C1 [Compound 9, Maslinic acid]
- caspase-dependent apoptosis (human colon-cancer cells): induce caspase-dependent apoptosis
- effect on anti-tumor activities of TNF-α (pancreatic tumor): potentiate anti-tumor activities of TNF-α
- pancreatic tumor growth and invasion (pancreatic tumor): inhibit pancreatic tumor growth and invasion
- PKC inhibition (Protein kinase C (PKC)): acted as a PKC inhibitor
- glucose-lowering and hypoinsulinemic effects [1]: significant glucose-lowering and hypoinsulinemic effects
- inhibition on HIV-1 protease [2]: possess inhibition

SMILES: CC(=O)O[C@@H]1C[C@@H](C(C)C)[C@]2(CO)CC[C@@]3(C)[C@H]4C(=CC[C@]3(C)[C@@H]12)[C@@]1(C)CC[C@H](O)C(C)(C)[C@@H]1C[C@@H]4O [Compound 22, Rubiarbonol G]
- melting point: 170 to 173 °C
- inhibition on A549, Hela and SMMC-7721 (A549, Hela and SMMC-7721): had inhibition
- antibacterial activity against Staphylococcus aureus (Staphylococcus aureus): exhibited inhibition
- antifungal activity against Candida albicans (Candida albicans): exhibited inhibition

SMILES: COc1ccc(C[C@H]2C(=O)N[C@@H](C)C(=O)N(C)[C@H]3Cc4ccc(cc4)Oc4cc(ccc4O)C[C@@H](C(=O)N[C@H](C)C(=O)N[C@@H](C)C(=O)N2C)N(C)C3=O)cc1 [Compound 71, RA-V]
- activity against NO production in LPS [3]: exhibited activity
- cytotoxic activities against HL-60 and HCT-116 (HL-60 and HCT-116): potent cytotoxicities
- antiangiogenic activity in HUVEC and HMEC-1 (HUVEC and HMEC-1): possessed the activity
- effects on iNOS induction (iNOS): potent effects

SMILES: COc1ccc(C[C@H]2C(=O)N[C@@H](C)C(=O)N(C)[C@H]3Cc4ccc(cc4)Oc4cc(ccc4OC)C[C@@H](C(=O)N[C@H](C)C(=O)N[C@@H](C)C(=O)N2C)N(C)C3=O)cc1 [Compound 74, RA-VII]
- growth of Lewis lung carcinoma cells inoculated into mice [4]: significantly and dose dependently inhibited
- toxic effects on animals ([4]; mice): no toxic effects
- cytotoxic activities against HL-60 and HCT-116 (HL-60 and HCT-116): potent cytotoxicities
- antiangiogenic activity on proliferation, migration, stress fiber formation of BAEC (BAEC): antiangiogenic activity
- mouse corneal angiogenesis (corneal angiogenesis): effects on mouse corneal angiogenesis

— article PMC3698108, “Structural and bioactive studies of terpenes and cyclopeptides from the Genus Rubia” (Chemistry Central Journal, 2013)
